Tests used:
[1] = target: Human α2δ-1 subunit of Cav2.2 calcium channel (Homo sapiens, UniProt P54289); experiment: Human α2δ-1 subunit of Cav2.2 calcium channel assay ([3H]-gabapentin binding); conditions: binding to the α2δ-1 subunit of voltage-gated calcium channels, expressed as Ki class; + also covers inhibition between 1% and 50%
Method in brief: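 Human α2δ-1 enriched membranes (2.5 μg) incubated 60 min at 27° C. with 15 nM [3H]-gabapentin in 10 mM Hepes-KOH pH 7.4; non-specific binding with 10 μM pregabalin. Filtration binding; % inhibition at 1 or 10 μM, or Ki from five concentrations.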

[2] = target: T1, Human σ1 receptor (Homo sapiens, UniProt Q99720); experiment: Human σ1 receptor radioligand assay ([3H](+)-pentazocine binding); conditions: binding to the σ1 receptor, expressed as Ki class; + also covers inhibition between 1% and 50%
T1 construct: expressed in transfected cells; host or cells: HEK-293
Method in brief: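 Membranes (7 μg) were incubated with 5 nM [3H](+)-pentazocine in 50 mM Tris-HCl pH 8 for 120 min at 37° C. Non-specific binding was defined with 10 μM haloperidol. Values are % inhibition at 1 or 10 μM or Ki from five concentrations, read by filtration and scintillation counting.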

T1 sequence (Q99720 whole entry): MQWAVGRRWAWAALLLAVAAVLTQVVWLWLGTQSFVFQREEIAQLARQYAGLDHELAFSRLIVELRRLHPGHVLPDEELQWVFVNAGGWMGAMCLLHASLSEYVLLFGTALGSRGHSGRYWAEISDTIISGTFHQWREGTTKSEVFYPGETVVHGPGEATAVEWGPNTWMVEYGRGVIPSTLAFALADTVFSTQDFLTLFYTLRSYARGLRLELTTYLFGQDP
Sequence of Human α2δ-1 subunit of Cav2.2 calcium channel (P54289 25-1103): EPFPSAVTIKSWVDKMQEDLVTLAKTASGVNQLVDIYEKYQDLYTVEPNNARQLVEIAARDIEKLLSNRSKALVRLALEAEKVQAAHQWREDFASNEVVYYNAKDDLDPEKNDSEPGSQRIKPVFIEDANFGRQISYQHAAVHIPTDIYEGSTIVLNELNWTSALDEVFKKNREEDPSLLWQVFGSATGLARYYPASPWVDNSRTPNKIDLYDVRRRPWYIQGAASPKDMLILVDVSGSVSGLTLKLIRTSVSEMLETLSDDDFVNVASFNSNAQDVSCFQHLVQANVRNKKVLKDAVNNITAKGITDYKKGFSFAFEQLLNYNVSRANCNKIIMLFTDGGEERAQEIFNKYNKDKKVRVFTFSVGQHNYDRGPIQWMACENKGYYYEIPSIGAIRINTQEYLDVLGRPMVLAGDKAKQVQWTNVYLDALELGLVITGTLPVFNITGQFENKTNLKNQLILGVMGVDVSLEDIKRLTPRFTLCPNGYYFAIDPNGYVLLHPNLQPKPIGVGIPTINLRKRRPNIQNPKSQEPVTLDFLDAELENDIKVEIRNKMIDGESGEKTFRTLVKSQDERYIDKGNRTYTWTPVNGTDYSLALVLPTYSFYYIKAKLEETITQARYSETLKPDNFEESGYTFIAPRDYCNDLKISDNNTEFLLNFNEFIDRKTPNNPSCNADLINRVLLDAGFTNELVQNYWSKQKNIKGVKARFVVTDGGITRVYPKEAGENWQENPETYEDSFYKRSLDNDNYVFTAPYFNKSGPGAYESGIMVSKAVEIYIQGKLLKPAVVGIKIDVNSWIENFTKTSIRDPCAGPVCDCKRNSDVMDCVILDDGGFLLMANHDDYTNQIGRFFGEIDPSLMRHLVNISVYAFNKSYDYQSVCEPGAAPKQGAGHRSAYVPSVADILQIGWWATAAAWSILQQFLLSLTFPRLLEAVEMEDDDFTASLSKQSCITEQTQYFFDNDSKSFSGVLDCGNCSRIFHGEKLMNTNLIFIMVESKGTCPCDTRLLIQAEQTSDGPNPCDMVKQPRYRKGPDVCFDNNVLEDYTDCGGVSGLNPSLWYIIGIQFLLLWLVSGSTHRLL

| Ki [1] [nM] | Ki [2] [nM] | Structure (SMILES) |
| --- | --- | --- |
| < 500 | < 500 | CCCC(c1nc2cc(Br)c(F)cc2c(=O)n1CCC)N1CCCN(CC)CC1 (stereo not drawn) [Example 62, 7-bromo-2-(1-(4-ethyl-1,4-diazepan-1-yl)butyl)-6-fluoro-3-propylquinazolin-4(3H)-one] |
| < 500 | < 500 | CCCC(c1nc2cc(C)c(Br)cc2c(=O)n1CC)N1CCCN(CC)CC1 (stereo not drawn) [Example 48, 6-bromo-3-ethyl-2-(1-(4-ethyl-1,4-diazepan-1-yl)butyl)-7-methylquinazolin-4(3H)-one] |
| < 500 | < 500 | CCCCn1c([C@@H](CCC)N2CCCN(CC)CC2)nc2ccc(F)cc2c1=O [Example 225, (R)-3-butyl-2-(1-(4-ethyl-1,4-diazepan-1-yl)butyl)-6-fluoroquinazolin-4(3H)-one] |
| < 500 | < 500 | CCCC(c1nc2cc(F)c(F)cc2c(=O)n1CC)N1CCCN(CC)CC1 (stereo not drawn) [Example 46, 3-ethyl-2-(1-(4-ethyl-1,4-diazepan-1-yl)butyl)-6,7-difluoroquinazolin-4(3H)-one] |
| > 5000 | > 1000 | CCC[C@H](c1nc2cc(F)c(Br)cc2c(=O)n1CC)N1CCCN(C)CC1 [Example 155, (R)-6-Bromo-3-ethyl-7-fluoro-2-(1-(4-methyl-1,4-diazepan-1-yl)butyl)quinazolin-4(3H)-one] |
| < 500 | > 1000 | CCC[C@H](c1nc2cc(F)c(OC)cc2c(=O)n1CC)N1CCCN(C)CC1 [Example 220, (R)-3-ethyl-7-fluoro-6-methoxy-2-(1-(4-methyl-1,4-diazepan-1-yl)butyl)quinazolin-4(3H)-one] |
| < 500 | > 1000 | CCCC(c1nc2cc(F)c(Br)cc2c(=O)n1CCC)N1CCCNCC1 (stereo not drawn) [Example 34, 2-(1-(1,4-diazepan-1-yl)butyl)-6-bromo-7-fluoro-3-propylquinazolin-4(3H)-one] |
| 500 to 5000 | < 500 | CCCC(c1nc2ccc(F)c(F)c2c(=O)n1CC)N1CCCN(CC)CC1 (stereo not drawn) [Example 78, 3-ethyl-2-(1-(4-ethyl-1,4-diazepan-1-yl)butyl)-5,6-difluoroquinazolin-4(3H)-one] |
| < 500 | < 500 | CCCC(c1nc2cc(Br)c(F)cc2c(=O)n1CC)N1CCCN(CC)CC1 (stereo not drawn) [Example 63, 7-bromo-3-ethyl-2-(1-(4-ethyl-1,4-diazepan-1-yl)butyl)-6-fluoroquinazolin-4(3H)-one] |
| < 500 | < 500 | CCCC(c1nc2ccc(Cl)cc2c(=O)n1CCC)N1CCCN(CC)CC1 (stereo not drawn) [Example 79, 6-chloro-2-(1-(4-ethyl-1,4-diazepan-1-yl)butyl)-3-propylquinazolin-4(3H)-one] |
| > 5000 | > 1000 | CCC[C@@H](c1nc2ccc(Cl)cc2c(=O)n1CCC)N1CCCN(C)CC1 [Example 160, (S)-6-chloro-2-(1-(4-methyl-1,4-diazepan-1-yl)butyl)-3-propylquinazolin-4(3H)-one] |

The remaining lines, values behind:

| Structure (SMILES) | Ki [1] [nM] | Ki [2] [nM] |
| --- | --- | --- |
| CCCC(c1nc2ccc(Br)cc2c(=O)n1CC)N1CCCNCC1 (stereo not drawn) [Example 2, 2-(1-(1,4-diazepan-1-yl)butyl)-6-bromo-3-ethylquinazolin-4(3H)-one] | < 500 | > 1000 |
| CCC[C@@H](c1nc2ccc(Br)cc2c(=O)n1CC)N1CCN(C)C[C@@H](C)C1 [Example 38, 6-bromo-2-((S)-1-((R)-4,6-dimethyl-1,4-diazepan-1-yl)butyl)-3-ethylquinazolin-4(3H)-one] | > 5000 | > 1000 |
| CCCC(c1nc2ccc(Cc3ccccc3)cc2c(=O)n1CC)N1CCCN(C)CC1 (stereo not drawn) [Example 207, 6-Benzyl-3-ethyl-2-(1-(4-methyl-1,4-diazepan-1-yl)butyl)quinazolin-4(3H)-one] | < 500 | 500 to 1000 |
| CCCC(c1nc2ccc(Br)c(C)c2c(=O)n1CC)N1CCCN(C)CC1 (stereo not drawn) [Example 24, 6-bromo-3-ethyl-5-methyl-2-(1-(4-methyl-1,4-diazepan-1-yl)butyl)quinazolin-4(3H)-one] | 500 to 5000 | < 500 |
| CCC[C@@H](c1nc2ccncc2c(=O)n1CC)N1CCN(C)C[C@H](C)C1 [Example 170, 2-((S)-1-((S)-4,6-dimethyl-1,4-diazepan-1-yl)butyl)-3-ethylpyrido[4,3-d]pyrimidin-4(3H)-one] | 500 to 5000 | > 1000 |
| CCCC(c1nc2ccc(F)c(F)c2c(=O)n1CC)N1CCCNCC1 (stereo not drawn) [Example 81, 2-(1-(1,4-diazepan-1-yl)butyl)-3-ethyl-5,6-difluoroquinazolin-4(3H)-one] | < 500 | 500 to 1000 |
| CCC[C@H](c1nc2ccc(C(F)(F)F)cc2c(=O)n1CC)N1CCN[C@H](C)CC1 [Example 258, 3-ethyl-2-((R)-1-((R)-5-methyl-1,4-diazepan-1-yl)butyl)-6-(trifluoromethyl)quinazolin-4(3H)-one] | 500 to 5000 | < 500 |
| CCCC(c1nc2ncc(Br)cc2c(=O)n1CC)N1CCCN(C)CC1 (stereo not drawn) [Example 175, 6-Bromo-3-ethyl-2-(1-(4-methyl-1,4-diazepan-1-yl)butyl)pyrido[2,3-d]pyrimidin-4(3H)-one] | < 500 | > 1000 |
| CCC[C@H](c1nc2cc(F)c(Br)cc2c(=O)n1CC)N1CCNC[C@H](C)C1 [Example 96, 6-Bromo-3-ethyl-7-fluoro-2-((R)-1-((S)-6-methyl-1,4-diazepan-1-yl)butyl)quinazolin-4(3H)-one] | < 500 | 500 to 1000 |
| CCC[C@@H](c1nc2ccc(Br)cc2c(=O)n1CC)N1CC[C@H](C)N(C)CC1 [Example 263] | > 5000 | > 1000 |
| CCC[C@@H](c1nc2cc(F)c(Br)cc2c(=O)n1CC)N1CCNC[C@@H](C)C1 [Example 99] | 500 to 5000 | > 1000 |
| CCCC(c1nc2cccnc2c(=O)n1CC)N1CCCN(C)CC1 (stereo not drawn) [Example 86, 3-ethyl-2-(1-(4-methyl-1,4-diazepan-1-yl)butyl)pyrido[3,2-d]pyrimidin-4(3H)-one] | > 5000 | > 1000 |
| CCC[C@H](c1nc2cc(Cl)c(Cl)cc2c(=O)n1CC)N1CCNC[C@H](C)C1 [Example 109, 6,7-Dichloro-3-ethyl-2-((R)-1-((S)-6-methyl-1,4-diazepan-1-yl)butyl)quinazolin-4(3H)-one] | < 500 | > 1000 |
| CCC[C@H](c1nc2ccc(Br)cc2c(=O)n1CC)N1CCN[C@@H](C)CC1 [Example 93, 6-bromo-3-ethyl-2-((R)-1-((S)-5-methyl-1,4-diazepan-1-yl)butyl)quinazolin-4(3H)-one] | < 500 | 500 to 1000 |
| CCC[C@H](c1nc2ccc(F)cc2c(=O)n1C(C)C)N1CCCN(C)CC1 [Example 222, (R)-6-fluoro-3-isopropyl-2-(1-(4-methyl-1,4-diazepan-1-yl)butyl)quinazolin-4(3H)-one] | > 5000 | 500 to 1000 |
| CCC[C@H](c1nc2ccc(F)cc2c(=O)n1CC(C)C)N1CCCN(C)CC1 [Example 214, (R)-6-fluoro-3-isobutyl-2-(1-(4-methyl-1,4-diazepan-1-yl)butyl)quinazolin-4(3H)-one] | < 500 | < 500 |
| CCC[C@@H](c1nc2ccc(Br)cc2c(=O)n1CC)N1CCN(C)C[C@H](CO)C1 [Example 126, 6-bromo-3-ethyl-2-((S)-1-((S)-6-(hydroxymethyl)-4-methyl-1,4-diazepan-1-yl)butyl)quinazolin-4(3H)-one] | 500 to 5000 | 500 to 1000 |
| CCC[C@H](c1nc2cc(F)c(Br)cc2c(=O)n1CC)N1CCNC[C@@H](C)C1 [Example 97, 6-bromo-3-ethyl-7-fluoro-2-((R)-1-((R)-6-methyl-1,4-diazepan-1-yl)butyl)quinazolin-4(3H)-one] | < 500 | 500 to 1000 |
| CCC[C@H](c1nc2ccncc2c(=O)n1CC)N1CCCN(C)CC1 [Example 173, (R)-3-Ethyl-2-(1-(4-methyl-1,4-diazepan-1-yl)butyl)pyrido[4,3-d]pyrimidin-4(3H)-one] | < 500 | > 1000 |
| CCCC(c1nc2ccc(Cl)cc2c(=O)n1CC)N1CCCNCC1 (stereo not drawn) [Example 22, 2-(1-(1,4-diazepan-1-yl)butyl)-6-chloro-3-ethylquinazolin-4(3H)-one] | < 500 | > 1000 |
| CCCC(c1nc2cc(C#N)ccc2c(=O)n1CC)N1CCCN(C)CC1 (stereo not drawn) [Example 9, 3-ethyl-2-(1-(4-methyl-1,4-diazepan-1-yl)butyl)-4-oxo-3,4-dihydroquinazoline-7-carbonitrile] | < 500 | > 1000 |
| CCC[C@H](c1nc2ccc(Br)cc2c(=O)n1CCC)N1CCNC[C@H](C)C1 [Example 67, 6-bromo-2-((R)-1-((S)-6-methyl-1,4-diazepan-1-yl)butyl)-3-propylquinazolin-4(3H)-one] | < 500 | > 1000 |
| CCC[C@@H](c1nc2ccc(Br)cc2c(=O)n1CC)N1CCNC[C@@H](O)C1 [Example 113, 6-Bromo-3-ethyl-2-((S)-1-((R)-6-hydroxy-1,4-diazepan-1-yl)butyl)quinazolin-4(3H)-one] | > 5000 | > 1000 |
| CCC[C@@H](c1nc2ncc(Br)cc2c(=O)n1CC)N1CCN(C)C[C@H](C)C1 [Example 188, 6-bromo-2-((S)-1-((S)-4,6-dimethyl-1,4-diazepan-1-yl)butyl)-3-ethylpyrido[2,3-d]pyrimidin-4(3H)-one] | > 5000 | > 1000 |
| CCC[C@H](c1nc2cc(F)c(Cl)cc2c(=O)n1CC)N1CCN(C)C[C@H](C)C1 [Example 135, 6-Chloro-2-((R)-1-((S)-4,6-dimethyl-1,4-diazepan-1-yl)butyl)-3-ethyl-7-fluoroquinazolin-4(3H)-one] | < 500 | < 500 |
